Assays:
[1] = molecular target: T1, Aβ plaques (Homo sapiens, UniProt P05067); experiment: Autoradiographical analysis of binding to cryosections from cortex of AD patients and controls; details: F-18 labeled compound; Alzheimer's disease patients (AD) vs controls without Aβ plaques
T1 construct: controls without Aβ plaques; from tissue; host or cells: frontal lobe / cortex sections (frozen and paraffin) from AD patients, FTD patients and age-matched controls
Text: Fresh frozen as well as paraffin embedded sections of the frontal lobe from Alzheimer's dementia patients, frontotemporal dementia patients and age matched controls were used for the study. Frozen sections, sliced at 18 μm thickness on a cryostate (Leica, Germany) and paraffin sections, sliced on a sliding microtom (Leica) at a thickness of 6 μm, were mounted onto glass slides (Superfrost Plus, Fa.Menzel, Braunschweig Germany). Frozen sections were allowed to adhere to the slides for several nights at −20° C. The paraffin sections were deparaffinized using routine histological methods. For binding studies sections were incubated with the F-18 labeled test compound at 10 Bq/μl diluted in 25 mM Hepes buffer, pH 7.4, 0.1% (BSA) (200-300 μl/slide) for 1.5 hour at room temperature in a humidified chamber. For blocking experiments a 1000-fold access of the unlabeled test substance was added to the incubation mixture. After hybridization, sections were washed four times with Hepes buffer, 0.1% BSA (or alternatively two times with 40% ethanol) and finally dipped two times into dest. water for 10 sec. The air-dried sections were exposed to imaging plates and signals were detected by a phosphoimager device (Fuji BAS5000).

[2] = Biodistribution: organ distribution of F-18 signal in mice; format: in vivo, male NMRI mice; details: for Organ distribution of F-18 signal, intestine: intestine (with content); for Organ distribution of F-18 signal, stomach: stomach (without content)
Description: Biodistribution and excretion studies were performed in male NMRI mice (body weight app. 30g; 3 animals per time point). The animals were kept under normal laboratory conditions at a temperature of 22±2° C. and a dark/light rhythm of 12 hours. Food and water were provided ad libitium. During an acclimation period of at least 3 days before the beginning of the study animals were clinically examined to ascertain the absence of abnormal clinical signs. At 2, 5, 30, 60, 240 min post intravenous injection via the tail vein of ca. 150 kBq in 100 μl of the test compound, urine and feces were quantitatively collected. At the same time points, animals were sacrificed by decapitation and under isoflurane anaesthesia and the following organs and tissues were removed for the determination of radioactivity using a gamma-counter: spleen, liver, kidney, lung, femur, heart, brain, fat, thyroid, muscle, skin, blood, tail, stomach (without content), testicle, intestine (with content), pancreas, adrenals, and the remaining body. For analysis the decay corrected percentage of the injected dose per tissue weight (% ID/g±standard deviation) was calculated.

T1 sequence (P05067 672-713 limits assumed): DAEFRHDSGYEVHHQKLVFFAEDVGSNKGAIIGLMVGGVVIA

Organ distribution of F-18 signal, adrenals ([2]; 2 min post i.v. injection): 16.31 % ID/g | Organ distribution of F-18 signal, adrenals ([2]; 5 min post i.v. injection): 6.14 % ID/g | Organ distribution of F-18 signal, adrenals ([2]; 30 min post i.v. injection): 1.57 % ID/g | Organ distribution of F-18 signal, adrenals ([2]; 60 min post i.v. injection): 1.35 % ID/g | Organ distribution of F-18 signal, adrenals ([2]; 240 min post i.v. injection): 0.23 % ID/g | Organ distribution of F-18 signal, blood ([2]; 2 min post i.v. injection): 2.05 % ID/g | Organ distribution of F-18 signal, blood ([2]; 5 min post i.v. injection): 2.36 % ID/g | Organ distribution of F-18 signal, blood ([2]; 30 min post i.v. injection): 1.30 % ID/g | Organ distribution of F-18 signal, blood ([2]; 60 min post i.v. injection): 0.33 % ID/g | Organ distribution of F-18 signal, blood ([2]; 240 min post i.v. injection): 0.08 % ID/g | Organ distribution of F-18 signal, brain ([2]; 2 min post i.v. injection): 3.87 % ID/g | Organ distribution of F-18 signal, brain ([2]; 5 min post i.v. injection): 3.14 % ID/g | Organ distribution of F-18 signal, brain ([2]; 30 min post i.v. injection): 0.52 % ID/g | Organ distribution of F-18 signal, brain ([2]; 60 min post i.v. injection): 0.13 % ID/g | Organ distribution of F-18 signal, brain ([2]; 240 min post i.v. injection): 0.02 % ID/g | Organ distribution of F-18 signal, fat ([2]; 2 min post i.v. injection): 1.05 % ID/g | Organ distribution of F-18 signal, fat ([2]; 5 min post i.v. injection): 2.17 % ID/g | Organ distribution of F-18 signal, fat ([2]; 30 min post i.v. injection): 1.02 % ID/g | Organ distribution of F-18 signal, fat ([2]; 60 min post i.v. injection): 0.59 % ID/g | Organ distribution of F-18 signal, fat ([2]; 240 min post i.v. injection): 0.02 % ID/g | Organ distribution of F-18 signal, femur ([2]; 2 min post i.v. injection): 1.44 % ID/g | Organ distribution of F-18 signal, femur ([2]; 5 min post i.v. injection): 1.38 % ID/g | Organ distribution of F-18 signal, femur ([2]; 30 min post i.v. injection): 0.55 % ID/g | Organ distribution of F-18 signal, femur ([2]; 60 min post i.v. injection): 0.24 % ID/g | Organ distribution of F-18 signal, femur ([2]; 240 min post i.v. injection): 0.13 % ID/g | Organ distribution of F-18 signal, heart ([2]; 2 min post i.v. injection): 3.67 % ID/g | Organ distribution of F-18 signal, heart ([2]; 5 min post i.v. injection): 3.81 % ID/g | Organ distribution of F-18 signal, heart ([2]; 30 min post i.v. injection): 0.93 % ID/g | Organ distribution of F-18 signal, heart ([2]; 60 min post i.v. injection): 0.20 % ID/g | Organ distribution of F-18 signal, heart ([2]; 240 min post i.v. injection): 0.06 % ID/g | Organ distribution of F-18 signal, intestine ([2]; 2 min post i.v. injection): 2.27 % ID/g | Organ distribution of F-18 signal, intestine ([2]; 5 min post i.v. injection): 2.90 % ID/g | Organ distribution of F-18 signal, intestine ([2]; 30 min post i.v. injection): 11.37 % ID/g | Organ distribution of F-18 signal, intestine ([2]; 60 min post i.v. injection): 13.11 % ID/g | Organ distribution of F-18 signal, intestine ([2]; 240 min post i.v. injection): 13.53 % ID/g | Organ distribution of F-18 signal, kidney ([2]; 2 min post i.v. injection): 7.60 % ID/g | Organ distribution of F-18 signal, kidney ([2]; 5 min post i.v. injection): 8.59 % ID/g | Organ distribution of F-18 signal, kidney ([2]; 30 min post i.v. injection): 7.84 % ID/g | Organ distribution of F-18 signal, kidney ([2]; 60 min post i.v. injection): 2.86 % ID/g | Organ distribution of F-18 signal, kidney ([2]; 240 min post i.v. injection): 0.79 % ID/g | Organ distribution of F-18 signal, liver ([2]; 2 min post i.v. injection): 8.19 % ID/g | Organ distribution of F-18 signal, liver ([2]; 5 min post i.v. injection): 13.46 % ID/g | Organ distribution of F-18 signal, liver ([2]; 30 min post i.v. injection): 5.20 % ID/g | Organ distribution of F-18 signal, liver ([2]; 60 min post i.v. injection): 1.87 % ID/g | Organ distribution of F-18 signal, liver ([2]; 240 min post i.v. injection): 0.90 % ID/g | Organ distribution of F-18 signal, lung ([2]; 2 min post i.v. injection): 3.63 % ID/g | Organ distribution of F-18 signal, lung ([2]; 5 min post i.v. injection): 3.93 % ID/g | Organ distribution of F-18 signal, lung ([2]; 30 min post i.v. injection): 1.27 % ID/g | Organ distribution of F-18 signal, lung ([2]; 60 min post i.v. injection): 0.42 % ID/g | Organ distribution of F-18 signal, lung ([2]; 240 min post i.v. injection): 0.12 % ID/g | Organ distribution of F-18 signal, muscle ([2]; 2 min post i.v. injection): 1.94 % ID/g | Organ distribution of F-18 signal, muscle ([2]; 5 min post i.v. injection): 2.14 % ID/g | Organ distribution of F-18 signal, muscle ([2]; 30 min post i.v. injection): 0.62 % ID/g | Organ distribution of F-18 signal, muscle ([2]; 60 min post i.v. injection): 0.26 % ID/g | Organ distribution of F-18 signal, muscle ([2]; 240 min post i.v. injection): 0.03 % ID/g | Organ distribution of F-18 signal, pancreas ([2]; 2 min post i.v. injection): 4.49 % ID/g | Organ distribution of F-18 signal, pancreas ([2]; 5 min post i.v. injection): 4.49 % ID/g | Organ distribution of F-18 signal, pancreas ([2]; 30 min post i.v. injection): 1.64 % ID/g | Organ distribution of F-18 signal, pancreas ([2]; 60 min post i.v. injection): 0.32 % ID/g | Organ distribution of F-18 signal, pancreas ([2]; 240 min post i.v. injection): 0.11 % ID/g | Organ distribution of F-18 signal, skin ([2]; 2 min post i.v. injection): 1.12 % ID/g | Organ distribution of F-18 signal, skin ([2]; 5 min post i.v. injection): 1.84 % ID/g | Organ distribution of F-18 signal, skin ([2]; 30 min post i.v. injection): 1.17 % ID/g | Organ distribution of F-18 signal, skin ([2]; 60 min post i.v. injection): 0.43 % ID/g | Organ distribution of F-18 signal, skin ([2]; 240 min post i.v. injection): 0.06 % ID/g | Organ distribution of F-18 signal, spleen ([2]; 2 min post i.v. injection): 1.67 % ID/g | Organ distribution of F-18 signal, spleen ([2]; 5 min post i.v. injection): 2.25 % ID/g | Organ distribution of F-18 signal, spleen ([2]; 30 min post i.v. injection): 0.78 % ID/g | Organ distribution of F-18 signal, spleen ([2]; 60 min post i.v. injection): 0.12 % ID/g | Organ distribution of F-18 signal, spleen ([2]; 240 min post i.v. injection): 0.04 % ID/g | Organ distribution of F-18 signal, stomach ([2]; 2 min post i.v. injection): 3.81 % ID/g | Organ distribution of F-18 signal, stomach ([2]; 5 min post i.v. injection): 3.68 % ID/g | Organ distribution of F-18 signal, stomach ([2]; 30 min post i.v. injection): 2.88 % ID/g | Organ distribution of F-18 signal, stomach ([2]; 60 min post i.v. injection): 2.07 % ID/g | Organ distribution of F-18 signal, stomach ([2]; 240 min post i.v. injection): 0.46 % ID/g | Organ distribution of F-18 signal, tail ([2]; 2 min post i.v. injection): 5.14 % ID/g | Organ distribution of F-18 signal, tail ([2]; 5 min post i.v. injection): 4.06 % ID/g | Organ distribution of F-18 signal, tail ([2]; 30 min post i.v. injection): 2.28 % ID/g | Organ distribution of F-18 signal, tail ([2]; 60 min post i.v. injection): 0.67 % ID/g | Organ distribution of F-18 signal, tail ([2]; 240 min post i.v. injection): 0.31 % ID/g | Organ distribution of F-18 signal, testicle ([2]; 2 min post i.v. injection): 1.42 % ID/g | Organ distribution of F-18 signal, testicle ([2]; 5 min post i.v. injection): 1.73 % ID/g | Organ distribution of F-18 signal, testicle ([2]; 30 min post i.v. injection): 0.79 % ID/g | Organ distribution of F-18 signal, testicle ([2]; 60 min post i.v. injection): 0.27 % ID/g | Organ distribution of F-18 signal, testicle ([2]; 240 min post i.v. injection): 0.04 % ID/g | Organ distribution of F-18 signal, thyroid ([2]; 2 min post i.v. injection): 3.00 % ID/g | Organ distribution of F-18 signal, thyroid ([2]; 5 min post i.v. injection): 2.94 % ID/g | Organ distribution of F-18 signal, thyroid ([2]; 30 min post i.v. injection): 0.94 % ID/g | Organ distribution of F-18 signal, thyroid ([2]; 60 min post i.v. injection): 0.30 % ID/g | Organ distribution of F-18 signal, thyroid ([2]; 240 min post i.v. injection): 0.16 % ID/g
SMILES: O=C(NCC(=O)N1CCN(c2ccc(OCc3ccccc3)cn2)CC1)c1ccnc([18F])c1 [Example 14f, [^18F]-N-(2-{4-[5-(benzyloxy)pyridin-2-yl]piperazin-1-yl}-2-oxoethyl)-2-fluoropyridine-4carboxamide]
autoradiographical analysis of binding to cryosections from cortex [1]: Specific binding in plaque-rich regions of AD samples

— US20110250135A1, “Piperazine Derivatives for Binding and Imaging Amyloid Plaques and Their Use” (Bayer Schering Pharma Aktiengesellschaft, priority 2008, published 2011)
